# Test results taken from patent US12187684B2, “Benzimidazole derivatives as modulators of retinoid-related orphan receptor gamma (RORγ) and pharmaceutical use thereof” (Jiangsu Hengrui Medicine Co., Ltd., priority 2018, dated 2025).
# Target: T1, RORγ LBD-GST tagged (Homo sapiens, UniProt P51449)
# T1 construct: RORγ LBD-GST tagged (Cat No. RORC-114H, Creative Biomart); purchased Creative Biomart RORC-114H
# T1 sequence (P51449 269-508 limits assumed): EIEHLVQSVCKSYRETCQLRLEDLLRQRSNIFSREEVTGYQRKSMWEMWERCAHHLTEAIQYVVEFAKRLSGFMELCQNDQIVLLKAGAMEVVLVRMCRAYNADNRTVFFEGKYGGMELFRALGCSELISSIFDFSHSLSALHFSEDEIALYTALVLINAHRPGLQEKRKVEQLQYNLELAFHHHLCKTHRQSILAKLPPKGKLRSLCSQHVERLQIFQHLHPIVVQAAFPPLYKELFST
# Experiment: LanthaScreen TR-FRET RORγ coactivator assay
# Type: biochemical
# Conditions: Fluorescein-D22 coactivator peptide, 1 hour room temperature
# Description: LanthaScreen TR-FRET Retinoid-Related Orphan Receptor Gamma (RORγ) Coactivator Assay Materials and Reagents • 1. […] Fluorescein-D22 coactivator peptide (Cat No. PV4386, Invitrogen) • 3. LanthaScreen™ Tb anti-GST antibody (Cat No. PV3550, Invitrogen) • 4. TR-FRET coregulatory buffer D (Cat No, PV4420, Invitrogen) • 5. DTT (Cat No. P2325, Fisher) • 6. […] Tecan Infinite M1000 plate reader (Tecan) Experimental Procedure Prepare Complete TR-FRET Coregulator Buffer D by adding 1 M DTT to TR-FRET Coregulator Buffer D to the final concentration of 5 mM DTT. Make compound dilution in Complete TR-FRET Coregulator Buffer D. Highest dose is 3 μM, 7-folder dilution for total 7 doses. Add 10 μL to each well of a 384-well plate. For the negative and positive controls, add 10 μL of Complete TR-FRET Coregulator Buffer D. Prepare RORγ LBD using Complete TR-FRET Coregulator Buffer D. The final concentration of RORγ LBD is 25 ng/reaction. Add 5 μL RORγ LBD to all the wells of the 384-well assay plate except negative wells which adding 5 μL Complete TR-FRET Coregulator Buffer D. Prepare a solution containing 0.6 μM Fluorescein-D22 and 8 nM Tb anti-GST antibody using Complete TR-FRET Coregulator Buffer D. Add 5 μL to all wells of the 384-well assay plate. Briefly and gently mix the 384-well plate on a plate shaker and incubate at room temperature protected from light for 1 hour. The plate may be sealed with a cover to minimize evaporation. Read the plate at wavelengths of 520 nm and 495 nm on Tecan Infinite M1000. IC50 values were calculated using GraphPad Prism by plotting the logarithm of compounds concentration versus percent inhibition.
row,Compound,IC50 [µM]
1,"CCS(=O)(=O)c1ccc(C(CCO)c2nc3c(Cl)c(N4CCC(F)(F)CC4)c(Cl)cc3[nH]2)cc1 (single isomer, unassigned) [3-(4,6-dichloro-5-(4,4-difluoropiperidin-1-yl)-1H-benzo[d]imidazol-2-yl)-3-(4-(ethylsulfonyl)phenyl)propan-1-ol]",0.093
2,"CCS(=O)(=O)c1ccc(C(CC(N)=O)c2nc3c(Cl)c(N4CCC(F)(F)CC4)c(Cl)cc3[nH]2)cc1 (single isomer, unassigned) [3-(4,6-dichloro-5-(4,4-difluoropiperidin-1-yl)-1H-benzo[d]imidazol-2-yl)-3-(4-(ethylsulfonyl)phenyl)propanamide]",0.057
3,"NC(=O)CC(c1ccc(S(=O)(=O)CC2CC2)cc1)c1nc2cc(Cl)c(N3CCC(F)(F)CC3)c(Cl)c2[nH]1 (single isomer, unassigned) [3-(4-((cyclopropylmethyl)sulfonyl)phenyl)-3-(5,7-dichloro-6-(4,4-difluoropiperidin-1-yl)-1H-benzo[d]imidazol-2-yl)propanamide]",0.014
4,"O=S(=O)(CC1CC1)c1ccc(C(CCO)c2nc3cc(-c4ccccc4OC(F)F)c(Cl)cc3[nH]2)cc1 (single isomer, unassigned) [3-(6-chloro-5-(2-(difluoromethoxy)phenyl)-1H-benzo[d]imidazol-2-yl)-3-(4-((cyclopropylmethyl)sulfonyl)phenyl)propan-1-ol]",0.081
5,"NC(=O)CC(c1ccc(S(=O)(=O)CC2CC2)cc1)c1nc2cc(-c3ccccc3OC(F)F)c(Cl)cc2[nH]1 (single isomer, unassigned) [3-(6-chloro-5-(2-(difluoromethoxy)phenyl)-1H-benzo[d]imidazol-2-yl)-3-(4-((cyclopropylmethyl)sulfonyl)phenyl)propanamide]",0.21
6,"CC(C)Oc1ccccc1-c1cc2nc(C(CCO)c3ccc(S(=O)(=O)CC4CC4)cc3)[nH]c2cc1Cl (single isomer, unassigned) [3-(6-chloro-5-(2-isopropoxyphenyl)-1H-benzo[d]imidazol-2-yl)-3-(4-((cyclopropylmethyl)sulfonyl)phenyl)propan-1-ol]",0.787
7,"CC(C)Oc1ccccc1-c1cc2nc(C(CC(N)=O)c3ccc(S(=O)(=O)CC4CC4)cc3)[nH]c2cc1Cl (single isomer, unassigned) [3-(6-chloro-5-(2-isopropoxyphenyl)-1H-benzo[d]imidazol-2-yl)-3-(4-((cyclopropylmethyl)sulfonyl)phenyl)propanamide]",1.41
8,"CCS(=O)(=O)c1ccc(C(O)c2nc3c(Cl)c(-c4ccccc4)c(Cl)cc3[nH]2)cc1 (stereo not shown) [Example 2, (4,6-dichloro-5-phenyl-1H-benzo[d]imidazol-2-yl)(4-(ethylsulfonyl)phenyl)methanol]",0.467
9,"CCS(=O)(=O)c1ccc(Cc2nc3c(Cl)c(-c4ccccc4OC(C)C)c(Cl)cc3[nH]2)cc1 [Example 8, 4,6-dichloro-2-(4-(ethylsulfonyl)benzyl)-5-(2-isopropoxyphenyl)-1H-benzo[d]imidazole]",0.903
10,"CCS(=O)(=O)c1ccc(C(O)c2nc3c(Cl)c(-c4ccccc4OC(C)C)c(Cl)cc3[nH]2)cc1 (stereo not shown) [Example 10, (4,6-dichloro-5-(2-isopropoxyphenyl)-1H-benzo[d]imidazol-2-yl)(4-(ethylsulfonyl)phenyl)methanol]",0.056
11,"CCS(=O)(=O)c1ccc(C(CO)c2nc3c(Cl)c(-c4ccccc4F)c(Cl)cc3[nH]2)cc1 (stereo not shown) [Example 11, 2-(4,6-dichloro-5-(2-fluorophenyl)-1H-benzo[d]imidazol-2-yl)-2-(4-(ethylsulfonyl)phenyl)ethanol]",0.242
12,"CCS(=O)(=O)c1ccc(C(O)c2nc3c(Cl)c(-c4ccccc4F)c(Cl)cc3[nH]2)cc1 (stereo not shown) [Example 12, (4,6-dichloro-5-(2-fluorophenyl)-1H-benzo[d]imidazol-2-yl)(4-(ethylsulfonyl)phenyl)methanol]",0.106
13,"CCS(=O)(=O)c1ccc(C(O)c2nc3c(Cl)c(-c4cc(Cl)ccc4Cl)c(Cl)cc3[nH]2)cc1 (stereo not shown) [Example 15, (4,6-dichloro-5-(2,5-dichlorophenyl)-1H-benzo[d]imidazol-2-yl)(4-(ethylsulfonyl)phenyl)methanol]",0.787
14,"CCOc1ccccc1-c1c(Cl)cc2[nH]c(Cc3ccc(S(=O)(=O)CC)cc3)nc2c1Cl [Example 16, 4,6-dichloro-5-(2-ethoxyphenyl)-2-(4-(ethylsulfonyl)benzyl)-1H-benzo[d]imidazole]",0.626
15,"CCOc1ccccc1-c1c(Cl)cc2[nH]c(C(CO)c3ccc(S(=O)(=O)CC)cc3)nc2c1Cl (stereo not shown) [Example 17, 2-(4,6-dichloro-5-(2-ethoxyphenyl)-1H-benzo[d]imidazol-2-yl)-2-(4-(ethylsulfonyl)phenyl)ethanol]",0.097
16,"CCOc1ccccc1-c1c(Cl)cc2[nH]c(C(O)c3ccc(S(=O)(=O)CC)cc3)nc2c1Cl (stereo not shown) [Example 18, (4,6-dichloro-5-(2-ethoxyphenyl)-1H-benzo[d]imidazol-2-yl)(4-(ethylsulfonyl)phenyl)methanol]",0.013
17,"CCS(=O)(=O)c1ccc(C(CO)c2nc3c(Cl)c(-c4ccccc4C#N)c(Cl)cc3[nH]2)cc1 (stereo not shown) [Example 22, 2-(4,6-dichloro-2-(1-(4-(ethylsulfonyl)phenyl)-2-hydroxyethyl)-1H-benzo[d]imidazol-5-yl)benzonitrile]",0.219
18,"CCS(=O)(=O)c1ccc(Cc2nc3c(Cl)c(-c4ccsc4)c(Cl)cc3[nH]2)cc1 [Example 24, 4,6-dichloro-2-(4-(ethylsulfonyl)benzyl)-5-(thiophen-3-yl)-1H-benzo[d]imidazole]",0.701
19,"CCS(=O)(=O)c1ccc(C(CO)c2nc3c(Cl)c(-c4ccsc4)c(Cl)cc3[nH]2)cc1 (stereo not shown) [Example 25, 2-(4,6-dichloro-5-(thiophen-3-yl)-1H-benzo[d]imidazol-2-yl)-2-(4-(ethylsulfonyl)phenyl)ethanol]",0.789
20,"CCS(=O)(=O)c1ccc(C(O)c2nc3c(Cl)c(-c4ccsc4)c(Cl)cc3[nH]2)cc1 (stereo not shown) [Example 26, (4,6-dichloro-5-(thiophen-3-yl)-1H-benzo[d]imidazol-2-yl)(4-(ethylsulfonyl)phenyl)methanol]",0.465
21,"CCS(=O)(=O)c1ccc(Cc2nc3c(Cl)c(-c4ccccc4N(C)C)c(Cl)cc3[nH]2)cc1 [Example 27, 2-(4,6-dichloro-2-(4-(ethylsulfonyl)benzyl)-1H-benzo[d]imidazol-5-yl)-N,N-dimethylaniline]",0.489
22,"CCS(=O)(=O)c1ccc(Cc2nc3c(Cl)c(-c4ccccc4OC(F)F)c(Cl)cc3[nH]2)cc1 [Example 28, 4,6-dichloro-5-(2-(difluoromethoxy)phenyl)-2-(4-(ethylsulfonyl)benzyl)-1H-benzo[d]imidazole]",0.045
23,"CCS(=O)(=O)c1ccc(Cc2nc3c(Cl)c(-c4ccccc4C(C)C)c(Cl)cc3[nH]2)cc1 [Example 36, 4,6-dichloro-2-(4-(ethylsulfonyl)benzyl)-5-(2-isopropylphenyl)-1H-benzol[d]imidazole]",0.348
24,"CCS(=O)(=O)c1ccc(C(CO)c2nc3c(Cl)c(-c4ccccc4C(C)C)c(Cl)cc3[nH]2)cc1 (stereo not shown) [Example 37, 2-(4,6-dichloro-5-(2-isopropylphenyl)-1H-benzo[d]imidazol-2-yl)-2-(4-(ethylsulfonyl)phenyl)ethanol]",0.433
25,"CCS(=O)(=O)c1ccc(C(NC(C)=O)c2nc3c(Cl)c(-c4ccccc4OC(F)F)c(Cl)cc3[nH]2)cc1 (stereo not shown) [Example 40, N-((4,6-dichloro-5-(2-(difluoromethoxy)phenyl)-1H-benzo[d]imidazol-2-yl)(4-(ethylsulfonyl)phenyl)methyl)acetamide]",0.083
26,"CCS(=O)(=O)c1ccc(C(NC(=O)COC)c2nc3c(Cl)c(-c4ccccc4OC(F)F)c(Cl)cc3[nH]2)cc1 (stereo not shown) [Example 41, N-((4,6-dichloro-5-(2-(difluoromethoxy)phenyl)-1H-benzo[d]imidazol-2-yl)(4-(ethylsulfonyl)phenyl)methyl)-2-methoxyacetamide]",0.683
27,"CCS(=O)(=O)c1ccc(C(NC(=O)c2c(C)noc2C)c2nc3c(Cl)c(-c4ccccc4OC(F)F)c(Cl)cc3[nH]2)cc1 (stereo not shown) [Example 42, N-((4,6-dichloro-5-(2-(difluoromethoxy)phenyl)-1H-benzo[d]imidazol-2-yl)(4-(ethylsulfonyl)phenyl)methyl)-3,5-dimethylisoxazole-4-carboxamide]",0.113
28,"CCS(=O)(=O)c1ccc(C(N)c2nc3c(Cl)c(-c4ccccc4OC(F)(F)F)c(Cl)cc3[nH]2)cc1 (stereo not shown) [Example 43, (4,6-dichloro-5-(2-(trifluoromethoxy)phenyl)-1H-benzo[d]imidazol-2-yl)(4-(ethylsulfonyl)phenyl)methanamine]",0.656
